This note sets out measurements from BindingDB's records for doi:10.7270/Q2416VG3 (Nmmlsc, 2010).

A value given as a limit tells only on which side of the number the result lay.

For the first assay, the target named is T1, Regulator of G-protein signaling 7 (Homo sapiens, UniProt P49802).
T1 sequence (P49802 whole entry): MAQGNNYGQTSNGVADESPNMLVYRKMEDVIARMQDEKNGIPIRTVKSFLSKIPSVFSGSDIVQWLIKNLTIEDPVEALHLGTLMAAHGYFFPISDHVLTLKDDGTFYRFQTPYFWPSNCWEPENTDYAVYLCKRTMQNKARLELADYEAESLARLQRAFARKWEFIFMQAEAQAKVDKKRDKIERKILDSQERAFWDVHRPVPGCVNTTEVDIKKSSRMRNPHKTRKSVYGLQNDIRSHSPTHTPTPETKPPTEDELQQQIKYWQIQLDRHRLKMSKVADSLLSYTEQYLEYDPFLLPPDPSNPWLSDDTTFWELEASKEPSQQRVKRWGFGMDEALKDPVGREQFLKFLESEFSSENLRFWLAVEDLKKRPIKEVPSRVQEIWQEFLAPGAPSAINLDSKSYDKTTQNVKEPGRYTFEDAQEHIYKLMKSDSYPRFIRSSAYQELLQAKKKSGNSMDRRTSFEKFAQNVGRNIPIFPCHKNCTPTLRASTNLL
Description: small molecules altering RGS7 interaction with Galphao – biochemical, multiplexed bead flow cytometry, SAR compounds, SAR follow-up (AID 2296).
Conditions: not given
A general note: A flow cytometer gives signals particle by particle.
`COc1ccc(C2=CC(=O)C=CC2=O)cc1` [MLS001029846] showed an EC50 of 356 nM.

`CN=c1scc(C)n1N=Cc1ccc(O)c(O)c1O` [(4E)-2,3-dihydroxy-4-[[(4-methyl-2-methylimino-1,3-thiazol-3-yl)amino]methylidene]cyclohexa-2,5-dien-1-one] returned an EC50 of 244 nM. This EC50 and that of the compound before are within 1.5-fold of each other.

Regarding `O=C(NCCCN1CCOCC1)c1sc2cc([N+](=O)[O-])ccc2c1Cl` [3-chloranyl-N-(3-morpholin-4-ylpropyl)-6-nitro-1-benzothiophene-2-carboxamide], the EC50 was greater than 30000 nM.

In turn, `CCN(CC)S(=O)(=O)c1cccc(C(=O)NN=Cc2ccc(O)c(O)c2O)c1` displayed an EC50 of 381 nM.

Turning to `Cc1cc(C)c2c(n1)CCN(CC(=O)N1CCN(c3ccccc3)CC1)C2=O` [2,4-dimethyl-6-[2-oxidanylidene-2-(4-phenylpiperazin-1-yl)ethyl]-7,8-dihydro-1,6-naphthyridin-5-one], the concentration for a half-maximal effect (EC50) was greater than 30000 nM.

The compound `Cc1cccc(N2CCN(C(=O)COc3noc4nc(C)cc(C)c34)CC2C)c1` (stereo unspecified) [2-[(4,6-dimethyl-[1,2]oxazolo[5,4-b]pyridin-3-yl)oxy]-1-[3-methyl-4-(3-methylphenyl)piperazin-1-yl]ethanone] came in with an EC50 greater than 30000 nM.

Regarding `CC(NC(=O)c1sc2cc([N+](=O)[O-])ccc2c1Cl)C(C)(C)C` (stereo unspecified) [3-chloranyl-N-(3,3-dimethylbutan-2-yl)-6-nitro-1-benzothiophene-2-carboxamide], the EC50 is greater than 30000 nM.

In turn, `CCOC(=O)c1sc(NC(=O)CSc2nnc(Cc3ccccc3)o2)c(C#N)c1C` [4-cyano-3-methyl-5-[[1-oxo-2-[[5-(phenylmethyl)-1,3,4-oxadiazol-2-yl]thio]ethyl]amino]-2-thiophenecarboxylic acid ethyl ester] displayed an EC50 greater than 30000 nM.

Take `O=C1C(Cl)=C(N2CCCCC2)C(=O)C(Cl)=C1c1cnc(N2CCCCC2)s1` [MLS000550549]: the EC50 is 158 nM.

`CCN=c1scc(C)n1N=Cc1ccc(O)c(O)c1O` gave an EC50 of 449 nM.

Consider `CN1CCN(C2=C(Cl)C(=O)C(c3cnc(N4CCCCC4)s3)=C(Cl)C2=O)CC1`, for which the EC50 turned out to be 87 nM.

Compound `CC1(C)OC(=O)C(=Cc2ccc(-c3ccc(S(N)(=O)=O)cc3)o2)C(=O)O1` [SMR000273939] gave an EC50 of 1870 nM.

With `CCN(CC)S(=O)(=O)c1cccc(-c2n[nH]c(=S)n2N=Cc2ccc(C(=O)OC)cc2)c1` [4-[(E)-[3-[3-(diethylsulfamoyl)phenyl]-5-thioxo-1H-1,2,4-triazol-4-yl]iminomethyl]benzoic acid methyl ester], the EC50 was greater than 30000 nM.

`Cc1cccc(N2CCN(C(=O)COc3nsc4nc(C)cc(C)c34)CC2C)c1` (stereo unspecified) registered a concentration giving a half-maximal response (EC50) greater than 30000 nM.

`Cc1[nH]n(-c2ccccc2)c(=S)c1C=NCCCN=Cc1c(C)[nH]n(-c2ccccc2)c1=S` registered an EC50 of 2200 nM.

In turn, `Cc1cccc(N2CCN(C(=O)CN3CCc4nc(C)cc(C)c4C3=O)CC2C)c1` (stereo unspecified) [KUC103675N] came in with an EC50 greater than 30000 nM.

`Cc1cccc(N2CCN(C(=O)Cn3ccc4nc(C)cc(C)c4c3=O)CC2C)c1` (stereo unspecified) [2,4-dimethyl-6-[2-[3-methyl-4-(3-methylphenyl)piperazin-1-yl]-2-oxidanylidene-ethyl]-1,6-naphthyridin-5-one] displayed an EC50 greater than 30000 nM.

On to `Cc1cc(C)c2c(=O)n(CC(=O)N3CCN(c4ccccc4)CC3)ccc2n1` [2,4-dimethyl-6-[2-oxidanylidene-2-(4-phenylpiperazin-1-yl)ethyl]-1,6-naphthyridin-5-one], for which a half-maximal response (EC50) required 67 nM.

In turn, `NS(=O)(=O)c1ccc(N=NCc2ccc(O)c(O)c2O)c([N+](=O)[O-])c1` [4-[[(E)-(2,3-dihydroxy-4-oxo-1-cyclohexa-2,5-dienylidene)methyl]hydrazo]-3-nitrobenzenesulfonamide] came in with an EC50 of 141 nM.

With `O=C(COc1ccccc1C(=O)NN=Cc1ccc(O)c(O)c1)NN=Cc1ccc(O)c(O)c1` [N''-[(Z)-(3-hydroxy-4-oxo-1-cyclohexa-2,5-dienylidene)methyl]-2-[2-[[(Z)-(3-hydroxy-4-oxo-1-cyclohexa-2,5-dienylidene)methyl]hydrazo]-2-oxoethoxy]benzohydrazide], the EC50 was greater than 30000 nM.

`CC(=O)OCCCNc1cc(Sc2nc3ccccc3s2)c2nonc2c1[N+](=O)[O-]` [MLS000521052] registered an EC50 greater than 30000 nM.

`Cc1cccc(N2CCN(C(=O)Cn3sc4nc(C)cc(C)c4c3=O)CC2C)c1` (stereo unspecified) [2-[2-keto-2-[3-methyl-4-(m-tolyl)piperazino]ethyl]-4,6-dimethyl-isothiazolo[5,4-b]pyridin-3-one]: the EC50 was greater than 30000 nM.

On to `O=c1c2ccccc2sn1-c1ccccc1` [2-phenyl-1,2-benzothiazol-3-one], for which the EC50 was greater than 30000 nM.

For the compound `CCC(=O)NC(c1ccc(C)cc1)c1cc([N+](=O)[O-])c2cccnc2c1O` (stereo unspecified) [MLS000553854], a half-maximal response (EC50) required 4410 nM.

The compound `Cc1[nH]n(-c2ccccc2)c(=S)c1/C=N/c1cccc([N+](=O)[O-])c1` [(4E)-5-methyl-4-[(3-nitroanilino)methylene]-2-phenyl-2-pyrazoline-3-thione] came in with a concentration giving a half-maximal response (EC50) greater than 30000 nM.

On to `COC(=O)CCC(=O)Nc1sc(C)c(C)c1C(N)=O` [4-[(3-carbamoyl-4,5-dimethyl-2-thienyl)amino]-4-keto-butyric acid methyl ester], for which the EC50 is greater than 30000 nM.

The compound `O=C(Cc1csc(N2CCOCC2)n1)NN=Cc1ccc(O)c(O)c1O` [SMR000369439] returned an EC50 of 421 nM.

`O=c1c2ccccc2sn1-c1ccc(S(=O)(=O)N2CCCC2)cc1` [2-(4-pyrrolidin-1-ylsulfonylphenyl)-1,2-benzothiazol-3-one]: the EC50 is greater than 30000 nM.

`Nc1c(C(=O)NCC2CCCO2)sc2nc3c(c(-c4ccco4)c12)CC/C3=C/c1ccco1` (stereo unspecified) [UNM-0000305796]: the EC50 was 146 nM.

As to `Cc1cc(Cl)ccc1/N=c1/ssnc1Cl` [MLS000539990], the EC50 is greater than 30000 nM.

Still in this assay, the particulars now being: inactive by the depositor's call.
Take `CCOc1ccccc1-c1c2cc(O)c(=O)cc-2oc2cc(O)c(O)cc12` [MLS000578271]: a half-maximal response (EC50) required 3570 nM.

The EC50 is the concentration needed to bring the measured effect to its halfway point. Low values mean greater potency, high ones weaker potency.
